From patent US20090004664A1, “HCV NS3 replicon shuttle vectors” (ROCHE PALO ALTO LLC, priority 2007, published 2009)

Experiments:
Format in all cases: cell-based, HCV
[1] = test system: Genotype-1a template NS3 shuttle vector (H77NS3) replicon; experiment: Replicon phenotypic assay (transient replicon, firefly luciferase), Genotype-1a template NS3 shuttle vector; conditions: Hepatitis C virus, Huh-7; H77 NS3 replicon in cured Huh7 cells; inhibitor added 24 h post-transfection, luciferase read 72 h later
Protocol: (§1) Five micrograms of DNA plasmids were linearized by Sca I restriction enzyme (Roche). After overnight digestion at 37° C., the DNA was purified using Qiagen PCR purification kit. One microgram of linearized DNA was used for the in vitro transcription using T7 Mega script kit following manufacturer's protocol (Ambion). After 2 hours of incubation at 37° C., DNase treatment was performed for 30 minutes at 37° C. to remove the DNA template. In vitro transcribed RNA was then purified using NucAway Spin Column following manufacturer's protocol (Ambion).
(§2) Cured hepatoma cell line Huh7 were cultured at 37° C. in a humidified atmosphere with 5% CO2 in Dulbecco's Modified Eagle Medium (DMEM) supplemented with Glutamax™ and 100 mg/ml sodium pyruvate (Cat# 10569-010). The medium was further supplemented with 10% (v/v) FBS (Cat# 16000-036) and 1% (v/v) penicillin/streptomycin (Cat# 15140-122). All reagents were from Invitrogen/Gibco.
(§3) Four million cured Huh7 cells were transfected with 5 μg of in vitro transcribed RNA using electroporation. […] Inhibitors were added 24 hours post-transfection in 3 fold dilutions at a final DMSO concentration of 1% and firefly luciferase reporter signal was read 72 hours after addition of inhibitors using the Luciferase Assay system (Promega, cat #E1501). […]

[2] = test system: replicon containing patient-derived NS3 2209-23; experiment: Replicon phenotypic assay, replicon containing patient-derived NS3 2209-23; conditions: Hepatitis C virus, Huh-7; 2209-23 replicon in cured Huh7 cells; inhibitor added 24 h post-transfection, luciferase read 72 h later
Protocol: as §1, §2, §3

[3] = test system: replicon containing patient-derived NS3 TN132-1 (NS3 V36M, GT1a clinical isolate TN132); experiment: Replicon phenotypic assay, replicon containing patient-derived NS3 TN132-1; conditions: Hepatitis C virus, Huh-7
Protocol: as §1, §2, §3

[4] = test system: replicon containing patient-derived NS3 TN132-2 (NS3 V36M, GT1a clinical isolate TN132); experiment: Replicon phenotypic assay, replicon containing patient-derived NS3 TN132-2; conditions: Hepatitis C virus, Huh-7
Protocol: as §1, §2, §3

[5] = test system: replicon containing patient-derived NS3 TN132-6 (NS3 V36M, GT1a clinical isolate TN132); experiment: Replicon phenotypic assay, replicon containing patient-derived NS3 TN132-6; conditions: Hepatitis C virus, Huh-7
Protocol: as §1, §2, §3

[6] = test system: replicon containing patient-derived NS3 of sample TN-132 (V36M mutation in the NS3 gene); experiment: Replicon phenotypic assay, patient sample TN-132; conditions: sample TN-132 carrying V36M mutation in the NS3 gene
Protocol: as §1, §2, §3

Q: How did the IC50 [1] turn out when `CCC[C@H](NC(=O)[C@@H]1[C@H]2CCC[C@H]2CN1C(=O)[C@@H](NC(=O)[C@@H](NC(=O)c1cnccn1)C1CCCCC1)C(C)(C)C)C(=O)C(=O)NC1CC1` [VX-950] was run?
A: The IC50 was 0.44 µM.

Q: And the IC50 [2]?
A: The IC50 was 0.63 µM.

Q: And the IC50 [3]?
A: The IC50 was 2.37 µM.

Q: What about the IC50 [4] of the same molecule?
A: Its IC50 is 2.61 µM.

Q: And the IC50 [5]?
A: Its IC50 is 1.47 µM.

Q: And the “sensitivity of sample TN-132 to the inhibitor” value [6]?
A: Its value is “reduced sensitivity”.
